Data taken from patent US20180008573A1, “METHODS AND COMPOSITIONS FOR REDUCING DAMAGE ASSOCIATED WITH OXIDATIVE PHOSPHORYLATION” (USANA Health Sciences, Inc., priority 2016, published 2018).
Marks after values point to notes of the source that are not given here.

Key:
NF-κB reporter cells = experiment: Live cell multiplex assay in the NF-κB antagonist assay; assay type: cell-based, human
Experimental: A vehicle control was prepared.

C. elegans strain CB5586 = experiment: C. elegans phenotypic lifespan screening (Kaplan-Meier, Log-Rank, Fisher's Exact Test); assay type: in vivo; conditions: for restricted mean lifespan, # of Days: DMSO control 13.23
Experimental: Dilutions of the test formulations were applied to individual populations of C. elegans and the lifespan of each population was monitored. Any changes in the lifespan of an individual population compared to a control population were recorded and correlated to the respective test formulation (N356 or N357) and the respective dilution (0.1 mg/ml, 1 mg/ml, and 10 mg/ml).
The […] and N357 formulations were each prepared as individual 100 mg/ml stock solutions in dimethyl sulfoxide (DMSO). Serial dilutions of each stock solution were then prepared at 0.1 mg/ml, 1 mg/ml, and 10 mg/ml in DMSO. Control solutions of DMSO only were also prepared. Synchronous aged adult populations of C.elegans strain CB5586 worms were prepared. The CB5586 strain comprises a pharyngeal GFP (green fluorescent protein) tag and a mutation in the bus-5 gene. The pharyngeal GFP tag allows for fluorescent images of the worm populations to be taken. The mutation in the bus-5 gene causes the loss of normal cuticle antigens that permits the cuticle of the worms to become permeable to the test formulations and allow direct uptake of the test formulations to avoid interaction of the test formulations with protective mechanisms of the gut channel. Each serial dilution of each test formulation was added to a separate population of the prepared worms. The control solutions were also added to separate populations of the prepared worms. The populations of the prepared worms were then maintained on standard nematode growth media (NGM) agar plates at 20° C. with sufficient food (Escherichia coli strain OP-50).
Each worm population was then monitored by fluorescent imaging to determine the number of living and dead worms as a function of time. The fluorescent imaging was analyzed by software that recognized and counted worms based on their fluorescent intensity compared to background fluorescence. […] The ability to distinguish between living and dead worms allowed the number of living worms and cumulative number of dead worms to be monitored against time. Worm populations from a selection of fluorescent images were manually checked to verify that the software had accurately counted the number of living and dead worms.
The counts of the living and dead worms as a function of time were then analyzed for each of the worm populations and used to prepare Kaplan-Meier survival curves and associated statistics for each of the worm populations. […] The median lifespan is shown as the length of time after the last mitotic division that 50% of the test population remains viable when compared to the control population. The maximum lifespan extension is shown as the length of time after the last mitotic division that 5% of the test population remains viable when compared to the control population.
The counts of the living and dead worms as a function of time and the Kaplan-Meier survival curves and the associated statistics were then analyzed for each of the worm populations. The analysis included determining mean and median lifespan. The analysis included a non-parametric test, the Log-Rank test, that compares two survival functions for the overall lifespan assay and provides a reliable p-value summarizing the whole experiment. The analysis also included Fisher's Exact Test that calculated the significance of survival function comparisons at multiple specific time points throughout the experiment, rather than for the overall lifespan. The results of the analysis are shown below in Tables 10-17.
Phenotypic screening was carried out as described in EXAMPLE 2 for various individual compounds of the N357 formulation. […] Alpha lipoic acid was sourced from PureBulk USA as a racemic mix of R and S stereoisomers and was assigned a sample number of N198. Hesperidin was sourced from Sigma Aldrich at ≧80% purity and was assigned a sample number of N347. […]

Nrf2 [1] = target: T1, Nrf2 (Homo sapiens, UniProt Q16236); experiment: Nrf2 agonist reporter assay (native receptor, ARE-luciferase, CV1 cells); assay type: cell-based; parameters: comprising either the native receptor (Nrf2 and NF-κB); expressed in transfected cells; host or cells: CV1
T1 sequence (Q16236 1-605): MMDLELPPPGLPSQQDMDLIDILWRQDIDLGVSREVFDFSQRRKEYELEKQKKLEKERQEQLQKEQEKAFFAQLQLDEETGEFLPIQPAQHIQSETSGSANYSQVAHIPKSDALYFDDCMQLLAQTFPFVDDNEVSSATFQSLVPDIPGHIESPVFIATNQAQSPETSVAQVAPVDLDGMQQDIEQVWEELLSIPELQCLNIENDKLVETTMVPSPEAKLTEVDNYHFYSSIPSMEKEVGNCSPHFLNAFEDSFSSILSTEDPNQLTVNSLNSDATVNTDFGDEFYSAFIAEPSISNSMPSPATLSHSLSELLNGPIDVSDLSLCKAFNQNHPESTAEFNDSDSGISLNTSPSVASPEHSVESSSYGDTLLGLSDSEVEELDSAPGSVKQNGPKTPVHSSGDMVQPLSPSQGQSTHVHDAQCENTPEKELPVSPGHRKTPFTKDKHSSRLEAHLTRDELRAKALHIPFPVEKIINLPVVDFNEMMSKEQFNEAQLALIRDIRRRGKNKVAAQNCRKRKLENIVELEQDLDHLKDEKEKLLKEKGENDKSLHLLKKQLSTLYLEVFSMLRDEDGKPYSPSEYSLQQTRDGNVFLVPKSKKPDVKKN

human NF-κB = experiment: NF-κB antagonist reporter assay (NF-κB GRE-luciferase, HEK293 cells); assay type: cell-based; conditions: for antagonist activity against human NF-κB: at the concentrations tested;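 as to all read-outs here: reporter cells carry native NF-κB receptor with firefly luciferase under upstream response elements, with a vehicle control included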
Nrf2 [2] = target: T1, Nrf2; experiment: Nrf2 signaling fluorescent reporter assay in human retinal epithelial cell line; assay type: cell-based; parameters: host or cells: human retinal epithelial cell line
human PPARα = target: T2, human PPARα (Homo sapiens, UniProt Q07869); experiment: PPARα agonist reporter assay (Gal4 hybrid receptor, luciferase, CHO cells); assay type: cell-based
T2 construct: expressed in transfected cells; host or cells: CHO
T2 sequence (Q07869 239-466 limits assumed): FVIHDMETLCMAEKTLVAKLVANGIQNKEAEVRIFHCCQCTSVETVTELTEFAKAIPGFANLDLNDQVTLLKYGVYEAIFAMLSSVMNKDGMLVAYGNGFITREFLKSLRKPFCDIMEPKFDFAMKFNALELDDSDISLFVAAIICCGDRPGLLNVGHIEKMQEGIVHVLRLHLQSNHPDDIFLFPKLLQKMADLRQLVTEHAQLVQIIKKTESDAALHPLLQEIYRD

human PPARδ = target: T3, human PPARδ (Homo sapiens, UniProt Q03181); experiment: PPARδ agonist reporter assay (Gal4 hybrid receptor, luciferase, CHO cells); assay type: cell-based
T3 construct: expressed in transfected cells; host or cells: CHO
T3 sequence (Q03181 211-439 limits assumed): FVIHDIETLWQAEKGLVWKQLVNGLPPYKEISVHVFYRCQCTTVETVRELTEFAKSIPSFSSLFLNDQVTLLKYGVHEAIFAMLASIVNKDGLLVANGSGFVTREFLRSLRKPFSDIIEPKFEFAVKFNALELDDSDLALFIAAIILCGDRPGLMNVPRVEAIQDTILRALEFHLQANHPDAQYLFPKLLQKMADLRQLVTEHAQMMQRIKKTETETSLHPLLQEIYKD

human PPARγ = target: T4, human PPARγ (Homo sapiens, UniProt P37231); experiment: PPARγ agonist reporter assay (Gal4 hybrid receptor, luciferase, CHO cells); assay type: cell-based
T4 construct: expressed in transfected cells; host or cells: CHO
T4 sequence (P37231 238-503 limits assumed): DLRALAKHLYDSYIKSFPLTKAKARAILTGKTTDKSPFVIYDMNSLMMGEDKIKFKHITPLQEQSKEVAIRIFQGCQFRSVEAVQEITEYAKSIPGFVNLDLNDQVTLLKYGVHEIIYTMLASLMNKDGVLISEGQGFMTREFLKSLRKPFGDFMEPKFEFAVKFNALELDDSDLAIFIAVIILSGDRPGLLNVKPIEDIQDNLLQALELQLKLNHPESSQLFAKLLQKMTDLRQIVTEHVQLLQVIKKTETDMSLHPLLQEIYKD

## O=c1c(O)c(-c2ccc(O)c(O)c2)oc2cc(O)cc(O)c12 [Quercetin, 2-(3,4-dihydroxyphenyl)-3,5,7-trihydroxy-4H-chromen-4-one]
NF-κB reporter cells; 0.28 μg/ml active ingredient
  NF-κB % Live Cell: 103%
NF-κB reporter cells; 0.84 μg/ml active ingredient
  NF-κB % Live Cell: 99%
NF-κB reporter cells; 2.5 μg/ml active ingredient
  NF-κB % Live Cell: 103%
NF-κB reporter cells; 23 μg/ml active ingredient
  NF-κB % Live Cell: 97%
NF-κB reporter cells; 68 μg/ml active ingredient
  NF-κB % Live Cell: 77*** %
NF-κB reporter cells; at the concentrations tested
  compound-induced cytotoxicity: some evidence of compounded-induced cytotoxicity
C. elegans strain CB5586; 0.1 mg/ml
  Statistically Significant Result (lifespan vs. DMSO control): Statistically significant decrease
  decrease of lifespan: about 9%
  population age in days at 25% mortality: 9 days
  population age in days at 50% mortality: 11 days
  population age in days at 75% mortality: 14 days
  population age in days at 90% mortality: 18 days
  restricted mean lifespan, # of Days: 12.17 days
C. elegans strain CB5586; 0.1 mg/ml and 10 mg/ml tested
  effect on chronological lifespan: significant negative effect on chronological lifespan at certain tested concentrations
C. elegans strain CB5586; 0.1 mg/ml vs. DMSO control
  % Change in Mean Lifespan: −9%
C. elegans strain CB5586; 10 mg/ml
  Statistically Significant Result (lifespan vs. DMSO control): No statistical difference
  population age in days at 25% mortality: 9 days
  population age in days at 50% mortality: 14 days
  population age in days at 75% mortality: 16 days
  restricted mean lifespan, # of Days: 12.54 days
Nrf2 [1]; at the concentrations tested
  agonist activity against human Nrf2: low-level agonist activity
Human NF-κB; 0.28 μg/ml active ingredient
  NF-κB % Inhibition: −12%
Human NF-κB; 0.84 μg/ml active ingredient
  NF-κB % Inhibition: −6%
Human NF-κB; 2.5 μg/ml active ingredient
  NF-κB % Inhibition: −12%
Human NF-κB; 23 μg/ml active ingredient
  NF-κB % Inhibition: 58** %
Human NF-κB; 68 μg/ml active ingredient
  NF-κB % Inhibition: 85** %
Human NF-κB
  antagonist activity against human NF-κB: very low-level antagonist activity
Nrf2 [2]; 10 μM and 1 μM against a control
  activation of Nrf2: demonstrated activation of Nrf2 at both 10 μM and 1 μM, with more activation at the 1 μM concentration
Nrf2 [2]; human retinal epithelial cell line
  minimum inducing concentration (Nrf2): 0.55 µM

## COc1cc(/C=C/C(=O)CC(=O)/C=C/c2ccc(O)c(OC)c2)ccc1O [Curcumin, curcumin]
Human PPARα; 0.007 μg/ml active ingredient
  PPARα Fold-Activation: 1.3 fold
Human PPARα; 0.022 μg/ml active ingredient
  PPARα Fold-Activation: 1.3 fold
Human PPARα; 0.067 μg/ml active ingredient
  PPARα Fold-Activation: 1.3 fold
Human PPARα; 0.20 μg/ml active ingredient
  PPARα Fold-Activation: 1.1 fold
Human PPARα; 0.60 μg/ml active ingredient
  PPARα Fold-Activation: 1.0 fold
Human PPARα; 1.81 μg/ml active ingredient
  PPARα Fold-Activation: 0.86 fold
NF-κB reporter cells; 0.007 μg/ml active ingredient
  NF-κB % Live Cell: 105%
NF-κB reporter cells; 0.022 μg/ml active ingredient
  NF-κB % Live Cell: 105%
NF-κB reporter cells; 0.067 μg/ml active ingredient
  NF-κB % Live Cell: 106%
NF-κB reporter cells; 0.20 μg/ml active ingredient
  NF-κB % Live Cell: 105%
NF-κB reporter cells; 0.60 μg/ml active ingredient
  NF-κB % Live Cell: 99%
NF-κB reporter cells; 1.81 μg/ml active ingredient
  NF-κB % Live Cell: 97%
Nrf2 [1]; 0.007 μg/ml active ingredient
  Nrf2 Fold-Activation: 1.6 fold
Nrf2 [1]; 0.022 μg/ml active ingredient
  Nrf2 Fold-Activation: 1.7 fold
Nrf2 [1]; 0.067 μg/ml active ingredient
  Nrf2 Fold-Activation: 1.4 fold
Nrf2 [1]; 0.20 μg/ml active ingredient
  Nrf2 Fold-Activation: 0.96 fold
Nrf2 [1]; 0.60 μg/ml active ingredient
  Nrf2 Fold-Activation: 1.0 fold
Nrf2 [1]; 1.81 μg/ml active ingredient
  Nrf2 Fold-Activation: 1.6 fold
Human PPARδ; 0.007 μg/ml active ingredient
  PPARδ Fold-Activation: 1.2 fold
Human PPARδ; 0.022 μg/ml active ingredient
  PPARδ Fold-Activation: 1.2 fold
Human PPARδ; 0.067 μg/ml active ingredient
  PPARδ Fold-Activation: 1.0 fold
Human PPARδ; 0.20 μg/ml active ingredient
  PPARδ Fold-Activation: 1.2 fold
Human PPARδ; 0.60 μg/ml active ingredient
  PPARδ Fold-Activation: 1.3 fold
Human PPARδ; 1.81 μg/ml active ingredient
  PPARδ Fold-Activation: 1.0 fold
Human PPARγ; 0.007 μg/ml active ingredient
  PPARγ Fold-Activation: 1.0 fold
Human PPARγ; 0.022 μg/ml active ingredient
  PPARγ Fold-Activation: 1.0 fold
Human PPARγ; 0.067 μg/ml active ingredient
  PPARγ Fold-Activation: 0.95 fold
Human PPARγ; 0.20 μg/ml active ingredient
  PPARγ Fold-Activation: 0.96 fold
Human PPARγ; 0.60 μg/ml active ingredient
  PPARγ Fold-Activation: 0.90 fold
Human PPARγ; 1.81 μg/ml active ingredient
  PPARγ Fold-Activation: 1.1 fold
Human NF-κB; 0.007 μg/ml active ingredient
  NF-κB % Inhibition: −10%
Human NF-κB; 0.022 μg/ml active ingredient
  NF-κB % Inhibition: −3.4%
Human NF-κB; 0.067 μg/ml active ingredient
  NF-κB % Inhibition: −0.29%
Human NF-κB; 0.20 μg/ml active ingredient
  NF-κB % Inhibition: 22%
Human NF-κB; 0.60 μg/ml active ingredient
  NF-κB % Inhibition: 30%
Human NF-κB; 1.81 μg/ml active ingredient
  NF-κB % Inhibition: 51** %
Human NF-κB
  antagonist activity against human NF-κB: very low-level antagonist activity
